The assay has as its target T1, Endothelin-1 receptor (Mus musculus, UniProt Q61614).
T1 sequence (Q61614 whole entry): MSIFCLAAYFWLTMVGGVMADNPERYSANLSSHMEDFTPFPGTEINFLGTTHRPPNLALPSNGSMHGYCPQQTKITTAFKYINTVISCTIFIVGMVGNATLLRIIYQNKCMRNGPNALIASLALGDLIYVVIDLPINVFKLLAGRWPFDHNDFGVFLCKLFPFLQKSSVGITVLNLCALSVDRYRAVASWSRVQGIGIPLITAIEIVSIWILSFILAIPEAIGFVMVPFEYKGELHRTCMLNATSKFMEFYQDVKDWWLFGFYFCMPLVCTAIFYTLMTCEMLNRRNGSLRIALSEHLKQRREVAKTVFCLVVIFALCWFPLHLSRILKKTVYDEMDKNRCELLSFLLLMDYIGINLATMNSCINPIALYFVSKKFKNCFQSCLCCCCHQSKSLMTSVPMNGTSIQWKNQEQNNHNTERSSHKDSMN
Put plainly: Binding affinity for Endothelin A receptor was determined in murine 3T3 cells. The class given is cell-based, NIH3T3.
As a reminder, the IC50 is the point on the concentration scale where inhibition reaches its midpoint. Lower therefore signals higher potency. Take `CC[C@H](C)[C@H](NC(=O)[C@@H](NC(=O)[C@@H](CC(=O)O)NC(=O)[C@H](N)CCCNC(=O)[C@H](Cc1ccccc1)NC(C)=O)[C@@H](C)CC)C(=O)N[C@@H](Cc1c[nH]c2ccccc12)C(=O)O`: the IC50 was 0.25 µM.

Take `CC[C@H](C)[C@H](NC(=O)[C@H](CC(=O)O)NC(=O)[C@@H](N)CCCNC(=O)[C@H](Cc1ccccc1)NC(C)=O)C(=O)N[C@H](C(=O)N[C@@H](Cc1c[nH]c2ccccc12)C(=O)O)[C@@H](C)CC`: the IC50 stood at 0.23 µM.

The molecule `CC[C@H](C)[C@H](NC(=O)[C@H](CC(=O)O)NC(=O)[C@H](N)CCCNC(=O)[C@H](Cc1ccccc1)NC(C)=O)C(=O)N[C@@H](C(=O)N[C@@H](Cc1c[nH]c2ccccc12)C(=O)O)[C@@H](C)CC` had a half-inhibitory concentration (IC50) of 0.9 µM.

These data come from ChEMBL document CHEMBL1150490, “Endothelin eceptor Ligands. Multiple D-Amino acid replacement net approach” (Bioorg Med Chem Lett, 1993).
